Data on 1 substance can be found in patent publication US20090209620A1, “Direct Reversal Of The Suppressive Function Of CD4+Regulatory T Cells Via Toll-Like Receptor 8 Signaling” (priority 2005, published 2009).

The test system of one data set is Treg164 cells. The experiment in a line: Reversibility of siRNA-transduced Treg164 cells by Poly-G10 (functional proliferation assay). The data set is classed as cell-based, human. From the text:
Several siRNA sequences (19 nucleotides) for each gene were selected with use of computer-assisted programs. Oligonucleotides containing a siRNA sequence, 8 nucleotide spacers, and a polyT terminator sequence were annealed and then cloned into the HapI and XhoI sites of GFP-expressing pLentilox3.7 vector using methods well known in the art (See, e.g., D. A. Rubinson et al., Nat. Genet. 33, 401-6 (2003)). siRNA was under the control of a U6 promoter. The following DNA sequences used to construct siRNAs for IRAK4, MyD88, and TLR7, 8 and 9, were effective in silencing their corresponding genes:
5×10^6 293T cells were pre-seeded onto 100-mm dishes and transfected with 12 μg siRNA lentiviral DNA, 12 μg VSV-G plasmid DNA and 12 μg packaging viral CMV delta 8.9 plasmid, using Lipofectamine 2000. After the addition of fresh culture medium 8 h later, the cells were cultured for an additional 2-3 days. Viral supernatants were harvested, passed through a […] filter and concentrated by ultracentrifugation at 20,000 rpm for 2 h. Virus pellets were resuspended in a small volume of medium, and viral titers were determined by infecting 293T cells with serially diluted doses of virus. […] Transduction efficiency was analyzed at 3 or 4 days post-transduction, and the cells were sorted into GFP^+and GFP^−cells with a FACS ARIA sorter. […]

The next data set concerns 586mel human tumor cells. Kind of data set: Human 586mel tumor model in Rag1-/- mice with adoptive transfer of TIL586 and Treg102 cells. In kind it is in vivo. The settings on record: 586mel s.c. day 0; CD8+ TIL586 plus Treg102 cells with oligonucleotide on day 3; n=6 mice per group. As to the method:
Human 586mel tumor cells (5×106) in 100 μl of buffered saline were subcutaneously injected into Rag1^−/− mice (lacking T and B cells) or Rag 2 ^−/− γC ^−/− mice (lacking T, B and NK cells) on day 0. Tumor-specific CD8^+ TIL586 cells (2.5×107), which recognize and kill 586mel cells, were injected intravenously on day 3 with or without Treg102 cells (3×106) pretreated with Poly-G10 or Poly-T10. Tumor size was measured with calipers every 2-3 days. Tumor volume was calculated on the basis of two-dimensioned measurements. Tumor growth curves were compared with the Wilcoxon rank-sum test.
The data in FIG. 4A-B confirms that TLR8 serves as a receptor for synthetic guanosine containing oligonucleotides and natural ssRNA40 and ssRNA33 ligands derived from HIV-1 virus, and that its activation in endosomes by synthetic DNA or ssRNA ligands triggers a signaling pathway that can reverse the suppressive function of Treg cells. To study the guanosine containing oligonucleotide induced reversal of Treg cell function in vivo, a human tumor model was established by subcutaneously injecting 586mel human tumor cells into Rag1^−/− (T and B cell deficient) mice. […] Tumor volumes were measured and presented as mean±SD (n=6 mice per group). P value was determined between groups as indicated. […]

“Also recorded” adds a separate entry of the source. In the oligonucleotide strings, read from the 5' end, every base follows the letter of its sugar. An asterisk marks phosphorothioate; unmarked linkages are phosphodiester. Other units and linkages are bracketed, terminal groups are in braces. A string of capitals states the bases alone. d = 2'-deoxy (DNA)

“Poly-G10: guanosine oligonucleotide with protected phosphorothioate backbone (DNA dG*dG*dG*dG*dG*dG*dG*dG*dG*dG)”: the “reversibility of suppression by Poly-G10” value in the data set with Treg164 cells (IRAK4 siRNA-transduced (GFP+) Treg164 cells) and in the data set with Treg164 cells (MyD88 siRNA-transduced (GFP+) Treg164 cells) was “lost the capacity to reverse their suppressive function” throughout. For the same substance, the “tumor growth / antitumor immunity” value in the data set on 586mel human tumor cells is reported as “enhances antitumor immunity in vivo; also recorded: tumor growth was not detected during the first 42 days”.
